Consider 1 sequence from patent US20050277586A1, “Peptide chemically modified with polyethylene glycol” (priority 2002, published 2005).

This assay has as its target phosphatidyl serine (binding of human Factor VIII). Briefly: Affinity for phosphatidyl serine (EIA, inhibition of human Factor VIII binding). Conditions: in the presence of 5% BSA, human Factor VIII 1 μg/mL. How it is done:
The specific affinity of the peptide for phosphatidyl serine was evaluated by measuring activity of the peptide for inhibiting the binding of the human Factor VIII to phosphatidyl serine by using human Factor VIII which is known to bind to phosphatidyl serine but not to phosphatidyl choline in the presence of serum albumin. To be more specific, 100 μL of ethanol solution containing 10 μg/mL of phospholipids at a phosphatidyl serine (manufactured by SIGMA): phosphatidyl choline (manufactured by SIGMA) ratio of 3:7 was added to the wells of a 96 well plate (Immulon I, manufactured by Dynatech), and exsiccated by using a centrifugal evaporator (EC-95C, manufactured by Sakuma Seisakusho) at 40° C. for 40 minutes. 200 μL each of TBS (10 mM Tris-HCl (pH 7.4) containing 1% bovine serum albumin (BSA Fraction V, hereinafter referred to as BSA, manufactured by Seikagaku Corporation) and 0.9% (W/V) NaCl solution were added to each well, and the wells were blocked by allowing the plate to stand at 37° C. for 2.5 hours. After washing the plate with water, 100 μL of TBS solution supplemented with 5% BSA mixed with human Factor VIII (manufactured by American Diagnostica) at a final concentration 1 μg/mL and the peptide of predetermined dose prepared in Example 1 was added to each well, and the reaction was allowed to take place at 4° C. for 24 hours.
After the completion of the reaction, the human Factor VIII that became bound to the phosphatidyl serine was measured by enzyme immunoassay (EIA) in accordance with the general procedure described in a book (“Enzyme Immunoassay (3rd ed.)”, Eiji Ishikawa et al., Igaku-Shoin, 1987). To be more specific, the measurement was conducted by using anti-human Factor VIII mouse monoclonal antibody (ESH8, manufactured by American Diagnostica) for the primary antibody, horseradish peroxidase-labeled anti-mouse IgG antibody (P0260, manufactured by Daco) for the secondary antibody, and tetramethylbenzidine for the chromogenic substrate, and measuring the absorption at a wavelength of 450 nm by using a reference wavelength of 630 nm on a spectrophotometer (NJ-2100, manufactured by Intermed).
Intensity of the affinity of the peptide for the phosphatidyl serine was evaluated by using the value obtained by subtracting the absorption of the well having no human Factor VIII added thereto from the absorption of the well having only the human Factor VIII added thereto as the control value (100%), and designating the peptide concentration at which the value 0.5 was obtained when the value obtained by subtracting the absorption of the well having only the peptide added thereto from the absorption of the well having a mixture of the human Factor VIII and the peptide added thereto were divided by the control value as the IC50 value, and evaluating the intensity to be ++ when the IC50 value was up to 1 μM, and + when the intensity was more than 1 μM but not more than 10 μM. It is to be noted that the specific affinity was evaluated to be none when the intensity was 10 μM or more.

pIC50: −log10 of the molar value.

With “TRYLRIHPRSWVHQIALRLRYLRIHPRSWVHQIALRS [SEQ ID NO: 1]”, the pIC50 (usually −log10 of the IC50, conventionally taken in molar units) was above 6.00.
